Reference: ChEMBL document CHEMBL1201862, “PubChem BioAssay data set” (2004)
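Dose response: 5 concentrations. Exposure: 48 h. Format: 96-well plates. Endpoint: linear interpolation; highest concentration if not reached. GI50: concentration for 50% inhibition of growth.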 Activity calls are given as the source filed them. No stated cut-off is given here; in the data, active = GI50 up to about 1.1 µM and inactive = higher.

Legend:
Assay in all cases: growth of human tumour cells (NCI), 48 h
OVCAR-3 = test system: OVCAR-3
NCI-H522 = test system: NCI-H522
SK-OV-3 = test system: SK-OV-3
MOLT-4 = test system: MOLT-4
TK-10 = test system: TK-10
NCI-H226 = test system: NCI-H226
CCRF-CEM = test system: CCRF-CEM
Malme-3M = test system: Malme-3M
UACC-62 = test system: UACC-62
COLO 205 = test system: COLO 205
NCI-H23 = test system: NCI-H23
ACHN = test system: ACHN
LOX IMVI = test system: LOX IMVI
SK-MEL-2 = test system: SK-MEL-2
HL-60 = test system: HL-60
HCT-15 = test system: HCT-15

In the case of `CC(C)N(C(=O)C12C3C4C1C1C2C3C41C#N)C(C)C` (stereo unspecified), the GI50 (OVCAR-3) is reported as > 100 µM (inactive), the GI50 (NCI-H522) is reported as > 87.1 µM (inactive) and the GI50 (SK-OV-3) is reported as > 100 µM (inactive). For the same compound, the GI50 (MOLT-4) was > 100 µM (inactive), the GI50 (TK-10) was > 100 µM (inactive) and the GI50 (NCI-H226) was > 100 µM (inactive). The GI50 (CCRF-CEM) was > 50 µM (inactive), the GI50 (Malme-3M) was > 100 µM (inactive) and the GI50 (UACC-62) was > 100 µM (inactive). The GI50 (COLO 205) was > 100 µM (inactive), the GI50 (NCI-H23) was > 100 µM (inactive) and the GI50 (ACHN) was > 100 µM (inactive). The GI50 (LOX IMVI) was > 47.1 µM (inactive), the GI50 (SK-MEL-2) was > 100 µM (inactive) and the GI50 (HL-60) was > 41.4 µM (inactive). For the same compound, the GI50 (HCT-15) was over 72.8 µM.

With `Cc1c(CCl)c(=O)oc2c(C)c3occ(CCl)c(=O)c3cc12` the GI50 (OVCAR-3) was > 100 µM (inactive), the GI50 (NCI-H522) was 13.4 µM (inactive) and the GI50 (SK-OV-3) was > 100 µM (inactive). For the same compound, the GI50 (MOLT-4) was 6.35 µM (inactive), the GI50 (TK-10) was > 100 µM (inactive) and the GI50 (NCI-H226) was 23.9 µM (inactive). For the same compound, the GI50 (CCRF-CEM) was 3.18 µM (inactive), the GI50 (Malme-3M) was > 100 µM (inactive) and the GI50 (UACC-62) was 16.3 µM (inactive). The GI50 (COLO 205) was 16 µM (inactive), the GI50 (NCI-H23) was 31.6 µM (inactive) and the GI50 (ACHN) was > 100 µM (inactive). For the same compound, the GI50 (LOX IMVI) was 14.9 µM (inactive), the GI50 (SK-MEL-2) was > 100 µM (inactive) and the GI50 (HL-60) was 4.72 µM (inactive). For the same compound, the GI50 (HCT-15) was 25 µM.

`N#CCc1nnc(N)o1` was tested, and the GI50 (OVCAR-3) was > 100 µM (inactive), the GI50 (NCI-H522) was > 100 µM (inactive) and the GI50 (SK-OV-3) was > 100 µM (inactive). For the same compound, the GI50 (MOLT-4) was > 100 µM (inactive), the GI50 (TK-10) was > 100 µM (inactive) and the GI50 (NCI-H226) was > 100 µM (inactive). The GI50 (CCRF-CEM) was > 100 µM (inactive), the GI50 (Malme-3M) was > 100 µM (inactive) and the GI50 (UACC-62) was > 100 µM (inactive). For the same compound, the GI50 (NCI-H23) was > 100 µM (inactive), the GI50 (ACHN) was > 100 µM (inactive) and the GI50 (LOX IMVI) was > 100 µM (inactive). For the same compound, the GI50 (SK-MEL-2) was > 100 µM (inactive), the GI50 (HL-60) was > 100 µM (inactive) and the GI50 (HCT-15) was over 100 µM.

For `COC1CC(OS(=O)(=O)c2ccc(C)cc2)C(OC(=O)c2ccccc2)C(C)O1` (stereo unspecified), the GI50 (OVCAR-3) was > 10 µM (inactive), the GI50 (NCI-H522) was > 10 µM (inactive) and the GI50 (SK-OV-3) was > 10 µM (inactive). The GI50 (MOLT-4) was > 10 µM (inactive), the GI50 (TK-10) was > 10 µM (inactive) and the GI50 (NCI-H226) was > 10 µM (inactive). The GI50 (CCRF-CEM) was > 10 µM (inactive), the GI50 (Malme-3M) was > 10 µM (inactive) and the GI50 (UACC-62) was > 100 µM (inactive). For the same compound, the GI50 (COLO 205) was > 10 µM (inactive), the GI50 (NCI-H23) was > 10 µM (inactive) and the GI50 (ACHN) was > 10 µM (inactive). For the same compound, the GI50 (LOX IMVI) was > 10 µM (inactive), the GI50 (SK-MEL-2) was > 10 µM (inactive) and the GI50 (HL-60) was > 10 µM (inactive). It also gave a GI50 (HCT-15) of over 10 µM.

In the case of `C=C1C[C@]23CCC4C(C)(C)C(=O)CC[C@]4(C)C2C[C@H]1C(O)C3=O` (stereo partly specified), the GI50 (OVCAR-3) is reported as > 75 µM (inactive), the GI50 (NCI-H522) is reported as > 75 µM (inactive) and the GI50 (SK-OV-3) is reported as > 75 µM (inactive). The GI50 (MOLT-4) was > 75 µM (inactive), the GI50 (NCI-H226) was > 75 µM (inactive) and the GI50 (CCRF-CEM) was > 75 µM (inactive). For the same compound, the GI50 (Malme-3M) was > 75 µM (inactive), the GI50 (UACC-62) was > 75 µM (inactive) and the GI50 (COLO 205) was > 75 µM (inactive). The GI50 (NCI-H23) was > 75 µM (inactive), the GI50 (ACHN) was > 75 µM (inactive) and the GI50 (LOX IMVI) was > 75 µM (inactive). The GI50 (SK-MEL-2) was > 75 µM (inactive), the GI50 (HL-60) was > 75 µM (inactive) and the GI50 (HCT-15) was over 75 µM.

In the case of `CCc1cccc(CC)c1NC(=O)CC1SC(N)=NC1=O` (stereo unspecified), the GI50 (OVCAR-3) is reported as > 100 µM (inactive), the GI50 (NCI-H522) is reported as > 100 µM (inactive) and the GI50 (SK-OV-3) is reported as > 100 µM (inactive). For the same compound, the GI50 (MOLT-4) was > 100 µM (inactive), the GI50 (TK-10) was > 100 µM (inactive) and the GI50 (NCI-H226) was > 100 µM (inactive). The GI50 (CCRF-CEM) was > 100 µM (inactive), the GI50 (Malme-3M) was > 100 µM (inactive) and the GI50 (UACC-62) was > 100 µM (inactive). The GI50 (COLO 205) was > 100 µM (inactive), the GI50 (NCI-H23) was > 100 µM (inactive) and the GI50 (ACHN) was > 100 µM (inactive). For the same compound, the GI50 (LOX IMVI) was > 100 µM (inactive), the GI50 (SK-MEL-2) was > 100 µM (inactive) and the GI50 (HL-60) was > 100 µM (inactive). For the same compound, the GI50 (HCT-15) was over 100 µM.

In the case of `O=C(COc1ccc(Cl)cc1)N1N=C(c2ccc([N+](=O)[O-])o2)CC1(O)c1ccccc1` (stereo unspecified), the GI50 (OVCAR-3) is reported as 3.77 µM (inactive), the GI50 (NCI-H522) is reported as 15.5 µM (inactive) and the GI50 (SK-OV-3) is reported as 19.3 µM (inactive). The GI50 (MOLT-4) was 3.42 µM (inactive), the GI50 (TK-10) was 8.63 µM (inactive) and the GI50 (NCI-H226) was 28.2 µM (inactive). For the same compound, the GI50 (Malme-3M) was 10.4 µM (inactive), the GI50 (UACC-62) was 3.87 µM (inactive) and the GI50 (COLO 205) was 3.52 µM (inactive). For the same compound, the GI50 (NCI-H23) was 2.03 µM (inactive), the GI50 (ACHN) was 6.03 µM (inactive) and the GI50 (LOX IMVI) was 10.8 µM (inactive). For the same compound, the GI50 (SK-MEL-2) was 7.24 µM (inactive), the GI50 (HL-60) was 1.77 µM (inactive) and the GI50 (HCT-15) was 3.05 µM.

`NNC(=S)N/N=C(/C(=O)Nc1cc(Cl)ccc1Cl)C1C(=O)Nc2ccccc2[S+]1[O-]` (stereo unspecified) was tested, and the GI50 (OVCAR-3) was > 100 µM (inactive), the GI50 (NCI-H522) was 68.9 µM (inactive) and the GI50 (SK-OV-3) was > 100 µM (inactive). For the same compound, the GI50 (MOLT-4) was 78.9 µM (inactive), the GI50 (TK-10) was > 100 µM (inactive) and the GI50 (NCI-H226) was > 100 µM (inactive). For the same compound, the GI50 (CCRF-CEM) was > 100 µM (inactive), the GI50 (Malme-3M) was > 100 µM (inactive) and the GI50 (UACC-62) was > 100 µM (inactive). For the same compound, the GI50 (COLO 205) was > 100 µM (inactive), the GI50 (NCI-H23) was > 100 µM (inactive) and the GI50 (ACHN) was > 100 µM (inactive). For the same compound, the GI50 (LOX IMVI) was > 100 µM (inactive), the GI50 (SK-MEL-2) was > 100 µM (inactive) and the GI50 (HL-60) was > 100 µM (inactive). The GI50 (HCT-15) was over 100 µM.

With `CCCCC/C=C1\CCC(CN(C)C)C1=O` (stereo unspecified) the GI50 (OVCAR-3) was 15.6 µM (inactive), the GI50 (NCI-H522) was 4.06 µM (inactive) and the GI50 (SK-OV-3) was 15 µM (inactive). The GI50 (MOLT-4) was 1.95 µM (inactive), the GI50 (TK-10) was > 23.4 µM (inactive) and the GI50 (NCI-H226) was 15.5 µM (inactive). For the same compound, the GI50 (CCRF-CEM) was 1.56 µM (inactive), the GI50 (Malme-3M) was 14.6 µM (inactive) and the GI50 (UACC-62) was 15.9 µM (inactive). For the same compound, the GI50 (COLO 205) was 8.99 µM (inactive), the GI50 (NCI-H23) was 17.7 µM (inactive) and the GI50 (ACHN) was 13.9 µM (inactive). For the same compound, the GI50 (LOX IMVI) was 6.79 µM (inactive), the GI50 (SK-MEL-2) was 19.9 µM (inactive) and the GI50 (HL-60) was 6.97 µM (inactive). For the same compound, the GI50 (HCT-15) was 3.17 µM.
